Among the data in patent US7601702B2, “Dutpase Inhibitors” (Medivir AB, priority 2004, dated 2009) are IC50 values, retold here.

Each structure is given as a SMILES string. Values after ≈ are worked out from the molar mass of the structure shown.

Common to all, as to format: cell-based
In assay [1] the test system is Leishmania donovani strain MHOM/ET/67/L82. Briefly: Leishmaniasis macrophage in vitro screening model. The settings on record: amastigotes in murine macrophages, n=4. The procedure:
The Leishmania donovani strain MHOM/ET/67/L82 obtained from Dr. S. Croft, London) is used. The strain is maintained in the Syrian Golden hamster. Amastigotes are collected from the spleen of an infected hamster Amastigotes are grown in axenic culture at 37° C. in SM medium (Cunningham I., J. […] Primary peritoneal macrophages from NMRI mice are collected 1 day after a macrophage production stimulation with an i.p injection of 2 ml of a 2% potato starch suspension (FLUKA, Switzerland) All cultures and assays are done at 37° C. under an atmosphere of 5% CO2 in air. […] After use the stocks are kept at -20° C. For the assays, the compound is further diluted in serum-free culture medium and finally to the appropriate concentration in complete medium. Assays are performed in sterile 16-well chamber slides (LabTek, Nalgene/Nunc Int.) To each well 100 μl of a murine macrophage suspension (4×10^5/ml) in RPMI 1640 (containing bicarbonate and HEPES) supplemented with 10% heat inactivated fetal bovine serum is added. […] Infected and non-infected macrophages are counted for the control cultures and the ones exposed to the serial drug dilutions. The infection rates are determined. The results are expressed as % reduction in parasite burden compared to control wells, and the IC50 calculated by linear regression analysis. […]

The test system is the same in assay [2]. The experiment in a line: Leishmania donovani axenic amastigote assay. The settings on record: axenic amastigotes.
Assay [3] relates to Trypanosoma brucei rhodesiense STIB 900. The experiment in a line: Trypanosoma brucei whole cell assay, primary screen. The settings on record: read-out: ICo. Here is the method:
The bloodstream form trypomastigotes of the strains a and c are maintained in MEM medium with Earle's salts supplemented with 25 mM HEPES, 1 g/l additional glucose, 1% MEM nonessential amino acids (100×), 0.2 mM 2-mercaptoethanol, 2 mM Na-pyruvate, 0.1 mM hypoxanthine and 15% heat inactivated horse serum.
All cultures and assays are conducted at 37° C. under an atmosphere of 5% CO2 in air.
After use the stocks are kept at −20° C. For the assays, the compound is further diluted to the appropriate concentration using complete medium.
Assays are performed in 96-well microtiter plates, each well containing 100 μl of culture medium with 8×10^3 bloodstream forms with or without a serial drug dilution. The highest concentration for the test compounds is 90 μg/ml. Seven 3-fold dilutions are used covering a range from 90 μg/ml to 0.123 μg/ml. Each drug is tested in duplicate and each assay is repeated at least once. […]
10 μl of Alamar Blue (12.5 mg resazurin dissolved in 100 ml distilled water) are now added to each well and the plates incubated for another 2 hours. Then the plates are read with a Spectramax Gemini XS microplate fluorometer (Molecular Devices Cooperation, Sunnyvale, Calif., USA) using an excitation wave length of 536 nm and an emission wave length of 588 nm. Data are analysed using the microplate reader software Softmax Pro (Molecular Devices Cooperation, Sunnyvale, Calif., USA). […]

Assay [4] deals with Trypanosoma brucei gambiense STIB 930. Briefly: Trypanosoma brucei whole cell assay, secondary screen STIB 930.
Procedure: The bloodstream form trypomastigotes of strain b are maintained in MEM medium with Earle's salts supplemented with 25 mM HEPES, 1 g/l additional glucose, 1% MEM non-essential aminoacids (100×), 0.2 mM 2-mercaptoethanol, 2 mM Na-pyruvate, 0.1 mM hypoxanthine, 0.05 mM bathocuproine disulphonic acid, 0.15 mM L-cysteine and 15% heat inactivated pooled human serum.
Assays are performed in 96-well microtiter plates, each well containing 100 μl of culture medium with 8×10^3 bloodstream forms with or without a serial drug dilution. The highest concentration for the test compounds is 90 μg/ml. Seven 3-fold dilutions are used covering a range from 90 μg/ml to 0.123 μg/ml. […]
The test system of the next assay is T. b. brucei STIB 950. The experiment in a line: Trypanosoma brucei whole cell assay, secondary screen STIB 950. As to conditions: STIB950.

For the compound `CCCCCCCCCCCCCCCCOP(=O)([O-])OCC[N+](C)(C)C` [Miltefosine], the values for the IC50 in assay [1] and in assay [2] were 325 ng/mL (≈ 0.797 µM) and 120 ng/mL (≈ 0.294 µM), respectively.
Regarding `Nc1nc(N)nc(Nc2ccc([As]3SCC(CO)S3)cc2)n1` (centres unmarked) [melarsoprol], the results for the IC50 (in assay [3]; in assay [4]; with T. b. brucei STIB 950) were 1.6 ng/mL, 4.2 ng/mL and 2.8 ng/mL, respectively.
